Converted amounts (≈) assume the structure as drawn. Structures can show the parent of a compound that is named as a salt.
tested on: Acinetobacter baumannii ATCC17961; assay: Antimicrobial susceptibility testing: 90% growth inhibitory concentration (IC90) determination; type: cell-based; settings: 90% growth inhibitory concentration, Acinetobacter baumannii ATCC17961, Iso-Sensitest broth, OD 600 nm over 16 h; read-out: ATCC 17961 IC90
Method in brief: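 Growth inhibition derived in log phase from OD600 kinetics (every 20 minutes, 16h, 35±2° C) of ATCC17961 in Iso-Sensitest medium, inoculum ~5×10^5 CFU/ml. Compounds tested as twofold series, 10 points (e.g. 50 to 0.097 μM final); IC90 and IC50 reported.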

Compound	IC90 [nM]
cis 2-[1-(azetidin-3-ylmethyl)-4-[4-[2-chloro-4-[[5-[3-fluoro-4-[1-(2-methoxyethyl)-3-methyl-pyrazol-4-yl]phenyl]-1-methyl-imidazole-2-carbonyl]amino]benzoyl]piperazine-1-carbonyl]piperidin-1-ium-1-yl]acetic acid; 2,2,2-trifluoroacetate [Example O7]	140

same assay, conditions: Acinetobacter baumannii, ATCC17961, 16 h, read-out: ATCC 17961 IC90

Compound	IC90 [nM]
COCCn1cc(-c2ccc(-c3cnc(C(=O)Nc4ccc(C(=O)N5CCN(C(=O)C6CC[N+]7(CC6)CCN(Cc6ccccc6)CC7)CC5)c(Cl)c4)n3C)c(F)c2F)c(C)n1 [Example Q2, N-[4-[4-(3-benzyl-3-aza-6-azoniaspiro[5.5]undecane-9-carbonyl)piperazine-1-carbonyl]-3-chloro-phenyl]-5-[2,3-difluoro-4-[1-(2-methoxyethyl)-3-methyl-pyrazol-4-yl]phenyl]-1-methyl-imidazole-2-carboxamide]	705
COCCn1cc(-c2ccc(-c3cnc(C(=O)Nc4ccc(C(=O)N5CCN(C(=O)[C@H]6CC[N@@+](CC(=O)O)(CC7CNC7)CC6)CC5)c(Cl)c4)n3C)c(F)c2F)c(C)n1 [Example Q3, trans 2-[1-(azetidin-3-ylmethyl)-4-[4-[2-chloro-4-[[5-[2,3-difluoro-4-[1-(2-methoxyethyl)-3-methyl-pyrazol-4-yl]phenyl]-1-methyl-imidazole-2-carbonyl]amino]benzoyl]piperazine-1-carbonyl]piperidin-1-ium-1-yl]acetic acid; formate]	359
COCCn1cc(-c2ccc(-c3cnc(C(=O)Nc4ccc(C(=O)N5CCN(C(=O)[C@H]6CC[N@+](CC(=O)O)(CC7CNC7)CC6)CC5)c(Cl)c4)n3C)c(F)c2F)c(C)n1 [Example Q4, cis 2-[1-(azetidin-3-ylmethyl)-4-[4-[2-chloro-4-[[5-[2,3-difluoro-4-[1-(2-methoxyethyl)-3-methyl-pyrazol-4-yl]phenyl]-1-methyl-imidazole-2-carbonyl]amino]benzoyl]piperazine-1-carbonyl]piperidin-1-ium-1-yl]acetic acid formate;]	195

tested on: Acinetobacter baumannii ATCC17978; assay: Minimal Inhibitory Concentration (MIC) assay; type: cell-based; settings: Acinetobacter baumannii ATCC17978, CAMHB medium, 20 hours at 35±2° C., visual reading; read-out: MIC AB. ATCC17978
Description: Minimal Inhibitory Concentration Protocol (MIC) Assay:
Table 2 provides the in vitro potency of the compounds of present invention obtained against the strain Acinetobacter baumannii ATCC17978, which was assessed by an MIC (Minimal Inhibitory Concentration) assay as follows.
Test compounds were prepared from 10 mM DMSO stock solutions. The top dose was diluted from 10 mM to 2.5 mM by DMSO, followed by serial 2-fold 11 points dilutions in DMSO in a master plate (Greiner, Cat No: 651201). 2 μL compounds were transferred from the master plate into a new 96-well assay plate (Costar, 3599).
The growth medium […] Mueller Hinton Broth (CAMHIB) was prepared by adding 22 g powder (BD, 212322) in 1 L purified water, autoclaved, and supplemented with sterilized CaCl2 (20 mg per liter) and MgCl2 (10 mg per liter).
Vials of each of the test microorganisms were maintained frozen in the vapor phase of a liquid nitrogen freezer. Took out the bacterial strain ATCC 17978 from liquid nitrogen freezer, thawed it at room temperature, and diluted the bacterial in the CAMHB medium to achieve a final inoculum of 2×10^5 CFU/mL. 98 μL of the adjusted bacteria suspension was dispensed to the assay plate and pipetted 5 times.
Then the assay plates were incubated for 20 hours at 35±2° C. in ambient air with humidity. Following incubation, MIC […] value, the lowest concentration of drug that inhibits visible growth of the microorganism, was recorded by visual judgment of bacterial growth through magnification mirror of MIC reader, and the assay plates were photographed with Qcount system as image raw data. Meanwhile, the D600 of assay plates was recorded with SpectraMax Plus384 as GD raw data.

Compound	MIC [µM]
Cn1c(-c2ccc(-c3cn(C[C@H](O)CO)nc3C(F)(F)F)c(F)c2F)cnc1C(=O)Nc1ccc(C(=O)N2CCN(C(=O)C3CC[N+](C)(C)CC3)CC2)c(Cl)c1 [Example F8, N-[3-chloro-4-[4-(1,1-dimethylpiperidin-1-ium-4-carbonyl)piperazine-1-carbonyl]phenyl]-5-[4-[1-[(2S)-2,3-dihydroxypropyl]-3-(trifluoro-methyl)pyrazol-4-yl]-2,3-difluoro-phenyl]-1-methyl-imidazole-2-carboxamide; formate]	1.41
Cc1nn(CC(=O)Nc2ccccc2)cc1-c1ccc(-c2cnc(C(=O)Nc3ccc(C(=O)N4CCN(C(=O)C5CC[N+](C)(C)CC5)CC4)c(Cl)c3)n2C)c(F)c1F [Example G5, 5-[4-[1-(2-anilino-2-oxo-ethyl)-3-methyl-pyrazol-4-yl]-2,3-difluoro-phenyl]-N-[3-chloro-4-[4-(1,1-dimethylpiperidin-1-ium-4-carbonyl)piperazine-1-carbonyl]phenyl]-1-methyl-imidazole-2-carboxamide; formate]	0.32
Cc1nn(CC(=O)NC2CCOC2)cc1-c1ccc(-c2cnc(C(=O)Nc3ccc(C(=O)N4CCN(C(=O)C5CC[N+](C)(C)CC5)CC4)c(Cl)c3)n2C)c(F)c1F (stereo not shown) [Example G20, N-[3-chloro-4-[4-(1,1-dimethylpiperidin-1-ium-4-carbonyl)piperazine-1-carbonyl]phenyl]-5-[2,3-difluoro-4-[3-methyl-1-[2-oxo-2-(tetrahydrofuran-3-ylamino)ethyl]pyrazol-4-yl]phenyl]-1-methyl-imidazole-2-carboxamide; formate]	2.52
Cc1nn(CC(=O)NC2CCCCO2)cc1-c1ccc(-c2cnc(C(=O)Nc3ccc(C(=O)N4CCN(C(=O)C5CC[N+](C)(C)CC5)CC4)c(Cl)c3)n2C)c(F)c1F (stereo not shown) [Example G21, N-[3-chloro-4-[4-(1,1-dimethylpiperidin-1-ium-4-carbonyl)piperazine-1-carbonyl]phenyl]-5-[2,3-difluoro-4-[3-methyl-1-[2-oxo-2-(tetrahydropyran-2-ylamino)ethyl]pyrazol-4-yl]phenyl]-1-methyl-imidazole-2-carboxamide; formate]	2.57

More lines, now with the values ahead:

MIC [µM]	Compound
1.22	COCCn1nc(C)c(-c2ccc(-c3cnc(C(=O)Nc4ccc(C(=O)N5CCN(C(=O)C[N+]6(C)C[C@@H](N)[C@H](OC)C6)CC5)c(Cl)c4)n3C)c(F)c2F)c1C (mixture of isomers) [Example C13, N-[4-[4-[2-[(3R,4R)-3-amino-4-methoxy-1-methyl-pyrrolidin-1-ium-1-yl]acetyl]piperazine-1-carbonyl]-3-chloro-phenyl]-5-[2,3-difluoro-4-[1-(2-methoxyethyl)-3,5-dimethyl-pyrazol-4-yl]phenyl]-1-methyl-imidazole-2-carboxamide; formic acid; formate]
1.07	Cc1n[nH]cc1-c1ccc(-c2cnc(C(=O)Nc3ccc(C(=O)N4CCN(C(=O)[C@@H]5C[C@@H](O)C[N+]5(C)C)CC4)c(Cl)c3)n2C)c(F)c1F [Example D19, N-[3-chloro-4-[4-[(2S,4R)-4-hydroxy-1,1-dimethyl-pyrrolidin-1-ium-2-carbonyl]piperazine-1-carbonyl]phenyl]-5-[2,3-difluoro-4-(3-methyl-1H-pyrazol-4-yl)phenyl]-1-methyl-imidazole-2-carboxamide; formate]
0.56 (≈ 0.4 µg/mL)	Cc1c(-c2ccc(-c3cnc(C(=O)Nc4ccc(C(=O)N5CCN(C(=O)C6CCNCC6)CC5)c(Cl)c4)n3C)c(F)c2F)cnn1CC(F)F [Example E1, N-[3-chloro-4-[4-(piperidine-4-carbonyl)piperazine-1-carbonyl]phenyl]-5-[4-[1-(2,2-difluoroethyl)-5-methyl-pyrazol-4-yl]-2,3-difluoro-phenyl]-1-methyl-imidazole-2-carboxamide]
0.57 (≈ 0.414 µg/mL)	COCCn1ncc(-c2ccc(-c3cnc(C(=O)Nc4ccc(C(=O)N5CCN(C(=O)C6CCNCC6)CC5)c(Cl)c4)n3C)c(Cl)c2F)c1C [Example E4, 5-[2-chloro-3-fluoro-4-[1-(2-methoxyethyl)-5-methyl-pyrazol-4-yl]phenyl]-N-[3-chloro-4-[4-(piperidine-4-carbonyl)piperazine-1-carbonyl]phenyl]-1-methyl-imidazole-2-carboxamide; formic acid]
2.31	Cn1c(-c2ccc(-c3cn[nH]c3CCCCO)c(F)c2F)cnc1C(=O)Nc1ccc(C(=O)N2CCN(C(=O)C3CC[N+](C)(C)CC3)CC2)c(Cl)c1 [Example F21, N-[3-chloro-4-[4-(1,1-dimethylpiperidin-1-ium-4-carbonyl)piperazine-1-carbonyl]phenyl]-5-[2,3-difluoro-4-[5-(4-hydroxybutyl)-1H-pyrazol-4-yl]phenyl]-1-methyl-imidazole-2-carboxamide; formate]
1.24	Cn1c(-c2ccc(-c3cn(CC(N)=O)nc3C(F)(F)F)c(F)c2F)cnc1C(=O)Nc1ccc(C(=O)N2CCN(C(=O)C3CC[N+](C)(C)CC3)CC2)c(Cl)c1 [Example F35, 5-[4-[1-(2-amino-2-oxo-ethyl)-3-(trifluoromethyl)pyrazol-4-yl]-2,3-difluoro-phenyl]-N-[3-chloro-4-[4-(1,1-dimethylpiperidin-1-ium-4-carbonyl)piperazine-1-carbonyl]phenyl]-1-methyl-imidazole-2-carboxamide; formate]
0.32	Cc1c(-c2ccc(-c3cnc(C(=O)Nc4ccc(C(=O)N5CCN(C(=O)C6CC[N+](C)(C)CC6)CC5)c(Cl)c4)n3C)c(F)c2F)cnn1CC(=O)Nc1ccccn1 [Example G19, N-[3-chloro-4-[4-(1,1-dimethylpiperidin-1-ium-4-carbonyl)piperazine-1-carbonyl]phenyl]-5-[2,3-difluoro-4-[5-methyl-1-[2-oxo-2-(2-pyridylamino)ethyl]pyrazol-4-yl]phenyl]-1-methyl-imidazole-2-carboxamide; formate]

same assay, conditions: Acinetobacter baumannii, ATCC17978, 20 h, read-out: MIC AB. ATCC17978

Compound	MIC [µM]
COCCn1ncc(-c2ccc(-c3cnc(C(=O)Nc4ccc(C(=O)N5CCN(C(=O)C6CC[N+](C)(CCS(N)(=O)=O)CC6)CC5)c(Cl)c4)n3C)c(F)c2F)c1C (stereo not shown) [Example B34, N-[3-chloro-4-[4-[1-methyl-1-(2-sulfamoylethyl)piperidin-1-ium-4-carbonyl]piperazine-1-carbonyl]phenyl]-5-[2,3-difluoro-4-[1-(2-methoxyethyl)-5-methyl-pyrazol-4-yl]phenyl]-1-methyl-imidazole-2-carboxamide; formate]	0.65
